Assay [1] concerns 5-hydroxytryptamine induced bronchoconstriction. As to the kind of experiment: inhibition of 5-hydroxytryptamine induced bronchoconstriction in the anaesthetised, artificially respired guinea-pig (Konzett-Rossler preparation). It counts as in vivo. The settings on record: Cavia porcellus, iv, vs 5-hydroxytryptamine, read-out: Konzett-Rossler Test Ed50. The text has this: (a) The Compounds were examined for their ability to inhibit 5-hydroxytryptamine induced bronchoconstriction in the anaesthetised, artificially respired guinea-pig (Konzett-Rossler preparation).

The subject of assay [2] is indomethacin induced gastric ulceration. As to the kind of experiment: inhibition of indomethacin induced gastric ulceration in the rat. It counts as in vivo. An excerpt: The compounds were examined for their ability to inhibit indomethacin induced gastric ulceration in the rat and the activities are shown in Table 2.
The test system of assay [3] is broncho-constriction induced by an histamine aerosol. As to the kind of experiment: protection of conscious guinea-pigs against broncho-constriction induced by an histamine aerosol (Herxheimer test). The format is in vivo, guinea-pig. The method, then: (b) The Compounds were also examined for their ability to protect conscious guinea-pigs against broncho-constriction induced by an histamine aerosol (Herxheimer test). The Compounds were administered by aerosol.
The aerosol was produced in the following manner.
Water soluble Compounds were dissolved in normal saline at a concentration of […]. Water insoluble Compounds were dissolved in ethanol at a concentration of 10 μg/ml. These solutions were then diluted to the test concentrations with normal saline.

The ED50 is the dose at which the effect has come halfway, by size or by number of responders.

Consider `CCCCCCC(C)(O)CCN1C(=O)N(C)C(=O)C1CCCCCCC(C)=O` (stereo not shown) [Compound 9, 1-(3'-hydroxy-3'-methyl-n-nonyl)-3-methyl-5-(7"-oxo-n-octyl) hydantoin], for which the ED50 in assay [1] came out at 67.5 µg/kg. `CCCCCCC(C)(O)CCN1C(=O)N(C)C(=O)C1CCCCCCCC(C)=O` (stereo not shown) [Compound 1, 1-(3'-hydroxy-3'-methyl-n-nonyl)-3-methyl-5-(8"-oxo-n-nonyl) hydantoin]: in assay [1], the ED50 stood at 1.4 µg/kg. For the same compound, the “% Inhibition of Damage” value amounted to 64% in assay [2] (25 mg/kg p.o.), 74% in assay [2] (50 mg/kg p.o.) and 100% in assay [2] (100 mg/kg p.o.). For the compound `CCCCCCC(C)(O)CCN1C(=S)N(C)C(=O)C1CCCCCCCC(C)=O` (stereo not shown) [Compound 2, 1-(3'-hydroxy-3'-methyl-n-nonyl)-3-methyl-5-(8"-oxo-n-nonyl)-2-thiohydantoin], the “% Inhibition of Damage” value in assay [2] (100 mg/kg p.o.) amounted to 100%. For the compound `CCCCCCC(C)(O)CCN1C(=O)NC(=O)C1CCCCCCCC(C)=O` (stereo not shown) [Compound 8, 1-(3'-hydroxy-3'-methyl-n-nonyl)-5-(8"-oxo-n-nonyl) hydantoin], in assay [3] (after 2 mins.), the “% Increase in pre-convulsive coughing time at a dose of 10 μg/ml” value (shortened to “% Increase”) was determined as 81%. With `CC(=O)CCCCCCCC1C(=O)N(C)C(=O)N1CCC(C)(O)C1CCCCC1` (stereo not shown) [Compound 11, 1-(3'-hydroxy-3'-cyclohexyl-n-butyl)-3-methyl-5-(8"-oxo-n-nonyl) hydantoin], the median effective dose (ED50) in assay [1] stood at 1 µg/kg. Besides, the “% Increase” value is reported as 140% in assay [3] (after 2 mins.) and 23% in assay [3] (after 5 mins.). Consider `CCCCCCC(C)(O)CCN1CN(C)C(=O)C1CCCCCCCC(C)=O` (stereo not shown) [Compound 3, 1-(3'-hydroxy-3'-methyl-n-nonyl)-3-methyl-5-(8"-oxo-n-nonyl)-4-imidazolidone], for which, in assay [2] (100 mg/kg p.o.), the “% Inhibition of Damage” value is listed as 65%. Take `CCCCCCC(C)(O)CCN1C(=O)N(C)C(=O)C1CC#CCCCCC(C)=O` (stereo not shown) [Compound 6, 1-(3'-hydroxy-3'-methyl-n-nonyl)-3-methyl-5-(8"-oxo-non-2-ynyl) hydantoin]: the “% Increase” value in assay [3] (after 2 mins.) is listed as 29%; in assay [3] (after 5 mins.), 15%.

The values above are taken from patent publication US4241074A, “Prostaglandin analogues” (Beecham Group Limited, priority 1978, dated 1980).
